According to PubChem BioAssay (NCI):
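Compound exposure: 48 hours, 5 concentrations, 96-well plates. Abbreviation: GI50, concentration required for 50% inhibition of growth. The concentration for full growth arrest is given as TGI.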

What was measured:
Test in all cases: NCI-60 cell line screen, 48 h
[1] = system: M14 melanoma
[2] = system: MDA-N
[3] = system: OVCAR-5 ovarian
[4] = system: UO-31 renal
[5] = system: SK-MEL-5 melanoma
[6] = system: NCI/ADR-RES ovarian
[7] = system: SF-295 CNS
[8] = system: HCC-2998 colon
[9] = system: MDA-MB-435
[10] = system: HS 578T breast
[11] = system: A498 renal
[12] = system: NCI-H23 lung
[13] = system: KM12 colon
[14] = system: RXF 393 renal
[15] = system: SNB-75 CNS
[16] = system: SF-539 CNS
[17] = system: A549 NSCLC
[18] = system: DU-145 prostate
[19] = system: NCI-H522 lung
[20] = system: MCF7 breast
[21] = system: OVCAR-3 ovarian
[22] = system: CAKI-1 renal
[23] = system: UACC-62 melanoma
[24] = system: UACC-257 melanoma
[25] = system: T-47D breast
[26] = system: RPMI-8226 leukemia
[27] = system: BT-549 breast
[28] = system: OVCAR-4 ovarian
[29] = system: SK-MEL-28 melanoma
[30] = system: SW-620 colon
[31] = system: SK-MEL-2 melanoma
[32] = system: TK-10 renal
[33] = system: IGROV1 ovarian
[34] = system: SN12C renal
[35] = system: SNB-19 CNS
[36] = system: NCI-H460 lung
[37] = system: OVCAR-8 ovarian
[38] = system: U251 CNS
[39] = system: MDA-MB-231 breast
[40] = system: HOP-62 NSCLC
[41] = system: EKVX NSCLC
[42] = system: HCT-116 colon
[43] = system: NCI-H226 lung
[44] = system: K-562 leukemia
[45] = system: MALME-3M melanoma
[46] = system: HOP-92 NSCLC
[47] = system: HT29 colon
[48] = system: SF-268 CNS
[49] = system: PC-3 prostate
[50] = system: HCT-15 colon
[51] = system: ACHN renal
[52] = system: 786-0 renal
[53] = system: SK-OV-3 ovarian
[54] = system: COLO 205 colon
[55] = system: MOLT-4 leukemia
[56] = system: LOX IMVI melanoma

SMILES: Oc1c(Cl)cc(C(c2cc(Cl)c(O)c(Cl)c2)C(c2cc(Cl)c(O)c(Cl)c2)c2cc(Cl)c(O)c(Cl)c2)cc1Cl
- GI50 [1]: 4.25 µM
- TGI [1]: 18.8 µM
- GI50 [2]: 4.07 µM
- TGI [2]: 19 µM
- GI50 [3]: 12.3 µM
- TGI [3]: 24.8 µM
- GI50 [4]: 0.573 µM
- TGI [4]: 8.04 µM
- GI50 [5]: 2.89 µM
- TGI [5]: 14.8 µM
- GI50 [6]: 10.7 µM
- TGI [6]: 38 µM
- GI50 [7]: 3.51 µM
- TGI [7]: 16.3 µM
- GI50 [8]: 3.79 µM
- TGI [8]: 14.3 µM
- GI50 [9]: 5.64 µM
- TGI [9]: 19.2 µM
- GI50 [10]: 4.54 µM
- TGI [10]: 57.4 µM
- GI50 [11]: 10.1 µM
- TGI [11]: 26.3 µM
- GI50 [12]: 3.68 µM
- TGI [12]: 16.3 µM
- GI50 [13]: 2.85 µM
- TGI [13]: 11.8 µM
- GI50 [14]: 1.34 µM
- TGI [14]: 4.11 µM
- GI50 [15]: 3.08 µM
- TGI [15]: 7.87 µM
- GI50 [16]: 5.33 µM
- TGI [16]: 20.4 µM
- GI50 [17]: 3.73 µM
- TGI [17]: 36.4 µM
- GI50 [18]: 3.63 µM
- TGI [18]: 14.1 µM
- GI50 [19]: 6.36 µM
- TGI [19]: 47.5 µM
- GI50 [20]: 3.18 µM
- TGI [20]: 15.8 µM
- GI50 [21]: 3.12 µM
- TGI [21]: 11.9 µM
- GI50 [22]: 3.45 µM
- TGI [22]: 13.6 µM
- GI50 [23]: 3 µM
- TGI [23]: 12.5 µM
- GI50 [24]: 7.75 µM
- TGI [24]: 23.9 µM
- GI50 [25]: 1.74 µM
- TGI [25]: 12.5 µM
- GI50 [26]: 3 µM
- TGI [26]: 12.4 µM
- GI50 [27]: 3.23 µM
- TGI [27]: 36.9 µM
- GI50 [28]: 7.11 µM
- TGI [28]: 94.4 µM
- GI50 [29]: 5.27 µM
- TGI [29]: 54.3 µM
- GI50 [30]: 6.6 µM
- TGI [30]: 23 µM
- GI50 [31]: 2.92 µM
- TGI [31]: 7.33 µM
- GI50 [32]: 7.05 µM
- TGI [32]: 21.5 µM
- GI50 [33]: 5.29 µM
- TGI [33]: 16.8 µM
- GI50 [34]: 2.41 µM
- TGI [34]: 8.99 µM
- GI50 [35]: 3.51 µM
- TGI [35]: 17.3 µM
- GI50 [36]: 2.59 µM
- TGI [36]: 18.7 µM
- GI50 [37]: 4.11 µM
- TGI [37]: 22.3 µM
- GI50 [38]: 3.03 µM
- TGI [38]: 10.7 µM
- GI50 [39]: 6.22 µM
- TGI [39]: 26.4 µM
- GI50 [40]: 6.28 µM
- TGI [40]: 19.2 µM
- GI50 [41]: 3.35 µM
- TGI [41]: 17.2 µM
- GI50 [42]: 2.36 µM
- TGI [42]: 10.8 µM
- GI50 [43]: 25.7 µM
- GI50 [44]: 13.1 µM
- TGI [44]: 38 µM
- GI50 [45]: 5.88 µM
- TGI [45]: 30.4 µM
- GI50 [46]: 3.44 µM
- TGI [46]: 13.6 µM
- GI50 [47]: 4.36 µM
- TGI [47]: 16.3 µM
- GI50 [48]: 5.09 µM
- TGI [49]: 13.8 µM
- GI50 [50]: 2.57 µM
- TGI [50]: 13.7 µM
- GI50 [51]: 5.21 µM
- TGI [51]: 20.3 µM
- GI50 [52]: 3.49 µM
- TGI [52]: 16.7 µM
- GI50 [53]: 11.3 µM
- TGI [53]: 23.4 µM
- GI50 [54]: 10.6 µM
- TGI [54]: 28.9 µM

SMILES: Nc1sccc1S(=O)(=O)c1ccsc1N
- TGI [55]: > 100 µM
- TGI [1]: > 100 µM
- TGI [2]: > 100 µM
- TGI [3]: > 100 µM
- TGI [4]: > 100 µM
- TGI [5]: > 100 µM
- TGI [6]: > 100 µM
- TGI [7]: > 100 µM
- TGI [8]: > 100 µM
- TGI [9]: > 100 µM
- TGI [10]: > 100 µM
- TGI [11]: > 100 µM
- TGI [12]: > 100 µM
- TGI [13]: > 100 µM
- TGI [15]: > 100 µM
- TGI [16]: > 100 µM
- TGI [17]: > 100 µM
- TGI [18]: > 100 µM
- TGI [19]: > 100 µM
- TGI [20]: > 100 µM
- TGI [21]: > 100 µM
- TGI [22]: > 100 µM
- TGI [23]: > 100 µM
- TGI [24]: > 100 µM
- TGI [25]: > 100 µM
- TGI [26]: > 100 µM
- TGI [27]: > 100 µM
- TGI [28]: > 100 µM
- TGI [56]: > 100 µM
- TGI [29]: > 100 µM
- TGI [30]: > 100 µM
- TGI [31]: > 100 µM
- TGI [32]: > 100 µM
- TGI [33]: > 100 µM
- TGI [34]: > 100 µM
- TGI [35]: > 100 µM
- TGI [36]: > 100 µM
- TGI [37]: > 100 µM
- TGI [38]: > 100 µM
- TGI [39]: > 100 µM
- TGI [40]: > 100 µM
- TGI [41]: > 100 µM
- TGI [42]: > 100 µM
- TGI [43]: > 100 µM
- TGI [45]: > 100 µM
- TGI [46]: > 100 µM
- TGI [47]: > 100 µM
- TGI [48]: > 100 µM
- TGI [49]: > 100 µM
- TGI [50]: > 100 µM
- TGI [51]: > 100 µM
- TGI [52]: > 100 µM
- TGI [53]: > 100 µM
- TGI [54]: > 100 µM
